Series [1] is described as follows: Colour change in iron-fortified bouillon (CIELAB ΔEab*). The class given is physicochemical. Conditions: chicken bouillon containing curcumin, approx. 5.5 mg iron per 6.55 g powder, reconstituted in 250 mL boiling water, 60° C. min. 30 minutes; vs bouillon with no iron. The method, then:
Commercial Maggi Chicken Bouillon (Nestle Nigeria) containing curcumin was iron fortified by the addition of iron (III) complexes from Example 1, as well as ferrous sulphate (Dr. P. Lohmann GmbH KG) Ref1, and […] (Dr. P. Lohmann GmbH KG) Ref2. The amounts were chosen to provide approximately 5.5 mg of iron per 6.55 g of bouillon powder. A further sample without iron fortification was also prepared in the same manner. All samples were reconstituted in 250 mL of boiling water and kept at 60° C. for a minimum of 30 minutes.
Colour measurements were performed in 2.6×1 cm quartz cuvettes using an XRite ColorEye 7000A colorimeter. The colorimeter was set up with a D65 light source, 10 degree observer angle, specular component included and Large area View (LAV). The colour difference between the beverage with no iron salt and the iron-fortified beverages was measured for each material and expressed as ΔEab* using the CIELAB colour scale (Table 2).

Series [2] is described as follows: Human stable-isotope iron bioavailability study (erythrocyte incorporation). The class given is in vivo. Conditions: healthy adult women. The method, then:
Clinical trials were performed on fortified chicken bouillon and fortified chicken bouillon with corn flour to simulate inhibitory conditions. The trial was performed by ETH Zurich (Switzerland). The study was a controlled, single blind, single centre, and randomized cross-over trial in 22 healthy adult women, with each woman serving as their own control. Each participant consumed 6 different types of investigational products: bouillon respectively bouillon with maize porridge fortified either with PA:^58Fe:HCP, ^54FeSO4, (Ref1-labelled) or ^57FePP (Ref2-labelled). The PA:^58Fe:HCP complex was prepared as Example 1 sample 9 apart from the use of ^58Fe. The order of test meal administration was randomly assigned. […]
Fractional iron absorption (FIA) was calculated based on the measured shift of iron isotope ratios in the blood 14 days after the test meal administrations, from the blood samples collected on days 1, 17 and 35. […] The amounts of ^54Fe, ^57Fe and ^58Fe in the blood were calculated on the principle of isotope dilution by considering that iron isotopic labels are not mono-isotopic. Circulating iron was calculated based on blood volume and hemoglobin concentration. Blood volume was indirectly measured based on height and weight and calculated using the formula proposed by Brown et al [E. Brown et al., The Journal of clinical investigation, 41:21, 82-90.(1962)]. […]

`O=S(=O)([O-])[O-].[Fe+2]` [Ref1, ferrous sulphate]: the “Δ E” value in series [1] was 15.2.

Take `O=S(=O)([O-])[O-].[54Fe+2]` [^54FeSO4]: the fractional iron absorption worked out at 3.6% in series [2] (in bouillon plus maize meal rich in phytate) and 24.6% in series [2] (in bouillon).
